How the values were obtained:
hippocampal neurons = assay: Expression of cell proliferating markers Ki-67 and cdc2 in hippocampal neurons; format: cell-based, rat
Excerpt: Expression of cell cycle proteins have been successfully used to evaluate cellular proliferation. One such protein is the nuclear proliferation protein, Ki-67, which is expressed during the G1, S, G2, and M phases of the cell cycle, but is not expressed during the Go (resting) phase. Because Ki-67 antigen has a short half-life, it can be used as a marker of actively proliferating cells. Another cell cycle protein is cell division control protein 2 (cdc2) which is a cyclin dependent kinase (also called CDK1) which plays a crucial role in the G1/S and G2/M phase. If THP induces neuronal proliferation, cell proliferation markers should be elevated.
Hippocampal neurons were treated with THP at a concentration of 250 nM for 72 hours and immunostained with antibodies for the nuclear proliferation marker, ki-67 antigen, which appears yellow. […] The cell cycle protein cdc2 is also observed in a dose dependent fashion (see FIG. 4).
For this experiment, neurons were collected following 24 hrs of THP exposure. Forty μg protein of the total cell lysate was loaded and separated by 12% SDS-gel using antibody (Ahcom) specifically against cdc2- and analyzed using Un-Scan-It image software (Ilk Scientific Corp.).

[1] = tested on: neural stem cells derived from human fetal cortex; assay: BrdU chemiluminescence ELISA in human neural stem cells; format: cell-based; conditions: 250 and 500 nM, 24 hours
Experimental: Another experiment was performed to assess the neurogenic effects of THP administration on human neural stem cells. In this experiment, neural stem cells derived from human fetal cortex were treated with varying concentrations of THP [1-1000 nM] or with bFGF [20 ng/ml]+heparin [[…]] as a THP positive control. The proliferation marker, BrdU [10 uM] was added simultaneously with test molecules and the cells were incubated at 37° C. for 24 hours.

3×TgAD and non-Tg mice = assay: Trace eyeblink conditioning, learning and memory; format: in vivo, mouse; conditions: for memory performance nine days after learning trial / learning performance: 3 months; for learning performance: 10 mg/kg s.c. once
Experimental: Under deep anesthesia by intraperitoneal (i.p.) injection with ketamine (100 mg/kg i.p.) and xylazine (25 mg/kg i.p.), a 4 pin head stage (DIGI-KEY) was cemented to the skull of 3 month old male mouse with dental acrylic. The connector has four Teflon-coated stainless steel wires and one bare stainless steel wire (0.003″ bare and 0.0055″ coated, A-M Systems, Inc.). The bare wire was attached via a gold pin (Time Electronics) to the head stage. Coated wires were implanted s.c. in the orbicularis oculi dorsal to the left upper eyelid to record the EMG and s.c. periorbitally to deliver the shock US (3). All animals were then placed on a warm isothermal pad after surgery to recovery for 30 min. After surgery, mice were individually housed, provided with ad libitum access to food and water, and maintained on a 12 hr light/dark cycle.
After one week of acclimation to the colony room, mice with no obvious adverse responses to surgery were randomly assigned to an experimental condition. Mice were injected subcutaneously (s.c.) with 10 mg/kg THP or vehicle followed one hour later with an IP injection of BrdU (100 mg/kg). Following injection of test compound, mice were returned to their home cage for 7 days prior to onset of behavioral testing.
During the first day of training, mice were placed within Plexiglas cylinders in a sound-attenuated chamber and were habituated to the test environment for one session consisting of 30 stimulus-free trials at 30-60 sec inter-trial intervals while spontaneous eye-blink activity was recorded using electromyographic (EMG) activity recorded from the obicularis oculi dorsal to the orbit during each trial. EMG activity was rectified, and integrated using custom designed computational Labview routines.
Following habituation to the test environment mice underwent a learning phase and were trained for five days. Mice were trained by pairing delivery of a tone (CS, 250 msec, 2 kHz, 85 dB) as the conditioned stimulus followed by a 250 msec period of no stimuli, followed by the periobital shock as the unconditioned stimulus (US, 100 msec). Mice received two blocks of 30 trials per day (30-60-sec inter-trial intervals, 3-4-h inter-block intervals). This trace eye-blink conditioning paradigm is subthreshold for inducing neurogenesis. The unpaired group received random tone at the same magnitude as the paired conditioning and shock with 15-30 sec as inter-trial intervals and a total of 60 trials for one session per day. Shock intensity was adjusted daily for each mouse to elicit a head-movement response. Following the learning phase, mice were returned to their home cage for eight days followed on the ninth day by a single session to assess memory of the conditioned response. The percentage of CR was computed as the ratio of the number of CRs to the total number of valid trials. Animals were perfused at the end of the memory trial day.
To determine if there was a functional consequence of THP-induced neurogenesis, the impact of THP on both the learning and memory of a behavioral task shown to be dependent upon the generation of new neurons in the dentate gyrus, delayed trace conditioning was assessed. 3×TgAD and non-Tg background mice were prepared for behavioral testing and received a single s.c. injection of THP (10 mg/kg once) or vehicle 7 days prior to start of the learning trial. After injection, mice were housed for 7 days before the training process started. The rationale for the 7 day interim between exposure to THP and the start of the behavioral experiment was to allow time for the proliferation, migration and integration of newly generated neurons into the dentate gyrus.
Following the 7 day interim period, the behavioral testing commenced with a 5 day (2×30 trials/day) training learning phase to assess rate and magnitude learning performance. After the learning trial, mice were returned to their home cage for another 9 day period and subsequently tested for memory of the learned association. […]

**Q.** How did the “expression of nuclear proliferation marker Ki-67” value (hippocampal neurons; 250 nM, 72 hours, immunostaining) turn out when `CC(=O)[C@H]1CC[C@H]2[C@@H]3CC[C@H]4C[C@H](O)CC[C@]4(C)[C@H]3CC[C@]12C` [THP, 3α-hydroxy-5α-pregnan-20-one] was run?
**A.** The value was “induces the expression of the nuclear proliferation marker Ki-67”.

**Q.** What about the “expression of cdc2” value (hippocampal neurons; 250 or 500 nM, 24 hrs, Western blot) of the same compound?
**A.** Its value is “increases expression of cell division control protein 2 (cdc2)”.

**Q.** What about the “BrdU chemiluminescence compared with positive control bFGF+heparin” value [1] of the same compound?
**A.** The value was “consistently greater than the positive control bFGF+heparin”.

**Q.** What about the “BrdU chemiluminescence relative to vehicle control” value [1] of the same compound?
**A.** The value was “significantly increased”.

**Q.** And the “memory performance nine days after learning trial” value (3×TgAD and non-Tg mice; 3×TgAD mice)?
**A.** Its value is “significant increase in memory”.

**Q.** What about the learning performance (3×TgAD and non-Tg mice; 3×TgAD mice) of the same compound?
**A.** Its learning performance is “significantly increased the learning performance”.

**Q.** What about the “learning level (conditioned response) at the end of training” value (3×TgAD and non-Tg mice; 3×TgAD mice, 6-months-old, 10 mg/kg) of the same compound?
**A.** The value was 39.2±9.2%.

**Q.** And the “memory test 9 days after acquisition phase” value (3×TgAD and non-Tg mice; 3×TgAD mice, 6 months)?
**A.** Its value is “significantly increased the retention of the conditioned response rate”.

**Q.** And the “final level of learning” value (3×TgAD and non-Tg mice; 3×TgAD mice, 9-months-old)?
**A.** The value was 23.6±4.0%.

**Q.** And the “memory performance after 9 days vs vehicle” value (3×TgAD and non-Tg mice; 3×TgAD mice, 9-months-old)?
**A.** Its value is “significantly better memory performance”.

**Q.** And the “final level of learning” value (3×TgAD and non-Tg mice; 3×TgAD mice, 12-months-old)?
**A.** The value was 14.9±3.6%.

**Q.** What about the “memory deficit vs vehicle-treated non-Tg mice” value (3×TgAD and non-Tg mice; 3×TgAD mice, 12-months-old) of the same compound?
**A.** Its value is “not reversed”.

**Q.** What about the “learning rate and final level of learning” value (3×TgAD and non-Tg mice; 3×TgAD mice, 15-month-old) of the same compound?
**A.** The value was “did not affect the learning rate nor the final levels of learning”.

**Q.** What about the “% CR” value (3×TgAD and non-Tg mice; 3×TgAD mice, memory phase) of the same compound?
**A.** The value was 53.96%.

**Q.** What about the “memory performance nine days after learning trial” value (3×TgAD and non-Tg mice; non-Tg mice) of the same compound?
**A.** The value was “did not significantly augment the memory performance”.

**Q.** What about the learning performance (3×TgAD and non-Tg mice; non-Tg mice) of the same compound?
**A.** The learning performance was “did not augment the learning performance”.

**Q.** And the memory retention (3×TgAD and non-Tg mice; non-Tg mice, 6 months)?
**A.** The memory retention was “no effect”.

**Q.** And the “maximal conditioned response rate” value (3×TgAD and non-Tg mice; non-Tg mice, 6 months, 10 mg/kg)?
**A.** Its value is 30.4±7.7%.

**Q.** What about the “final level of learning” value (3×TgAD and non-Tg mice; non-Tg mice, 9-months-old) of the same compound?
**A.** Its value is 20.6±4.1%.

**Q.** And the memory test performance (3×TgAD and non-Tg mice; non-Tg mice, 9-months-old)?
**A.** The memory test performance was “no significant effect”.

**Q.** What about the “final level of learning” value (3×TgAD and non-Tg mice; non-Tg mice, 12-months-old) of the same compound?
**A.** Its value is 25.4±6%.

**Q.** And the memory performance (3×TgAD and non-Tg mice; non-Tg mice, 12-months-old)?
**A.** Its memory performance is “modest improved memory performance which was not significantly better than vehicle-treated group”.

**Q.** What about the “maximum level of learning” value (3×TgAD and non-Tg mice; non-Tg mice, 15-months-old) of the same compound?
**A.** Its value is 29.6±5.5%.

Reference: US11207331B2, “Agents, compositions and methods for enhancing neurological function” (University of Southern California, priority 2007, dated 2021)
